Measured values as given in PubChem BioAssay (NCI).
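Cultured in 96-well plates, cells were exposed to test compound for 48 hours across five concentrations. TGI marks complete inhibition of growth.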

Key:
Experiment in all cases: DTP human tumour cell line panel, 48 h
[1] = tested on: A498 renal
[2] = tested on: ACHN renal
[3] = tested on: BT-549 breast
[4] = tested on: CCRF-CEM leukemia
[5] = tested on: DU-145 prostate
[6] = tested on: EKVX NSCLC
[7] = tested on: HCC-2998 colon
[8] = tested on: HCT-116 colon
[9] = tested on: HCT-15 colon
[10] = tested on: HL-60(TB) leukemia
[11] = tested on: HOP-62 NSCLC
[12] = tested on: HS 578T breast
[13] = tested on: HT29 colon
[14] = tested on: K-562 leukemia
[15] = tested on: KM12 colon
[16] = tested on: LOX IMVI melanoma
[17] = tested on: M14 melanoma
[18] = tested on: MALME-3M melanoma
[19] = tested on: MCF7 breast
[20] = tested on: MDA-MB-231 breast
[21] = tested on: MDA-MB-435
[22] = tested on: MOLT-4 leukemia
[23] = tested on: NCI-H226 lung
[24] = tested on: NCI-H23 lung
[25] = tested on: NCI-H460 lung
[26] = tested on: NCI-H522 lung
[27] = tested on: OVCAR-3 ovarian
[28] = tested on: OVCAR-5 ovarian
[29] = tested on: RPMI-8226 leukemia
[30] = tested on: RXF 393 renal
[31] = tested on: SF-268 CNS
[32] = tested on: SF-539 CNS
[33] = tested on: SK-MEL-2 melanoma
[34] = tested on: SK-MEL-28 melanoma
[35] = tested on: SK-OV-3 ovarian
[36] = tested on: SN12C renal
[37] = tested on: SNB-19 CNS
[38] = tested on: SNB-75 CNS
[39] = tested on: SR leukemia
[40] = tested on: T-47D breast
[41] = tested on: TK-10 renal
[42] = tested on: U251 CNS
[43] = tested on: UACC-257 melanoma
[44] = tested on: UACC-62 melanoma
[45] = tested on: UO-31 renal

Measured: TGI

CCCCOC(=O)NC(Nc1ccc(S(N)(=O)=O)cc1)(C(F)(F)F)C(F)(F)F
> 100 µM: all assays above
